Paper PMC10590056, “Design and synthesis of cabotegravir derivatives bearing 1,2,3-triazole and evaluation of anti-liver cancer activity” (Frontiers in Pharmacology, 2023)
Where “and” joins values, the source holds several entries; their conditions need not be identical. Equal values may be shown once. Read-outs that look alike come from different tables or passages of the source.

Key:
Type in all cases: cell-based
[1] = test system: HeLa cells; assay: MTT assay for cell proliferation, HeLa; design: key to Inhibitory rate: inhibition rate = 1 - mean A490 sample/mean A490 control (fraction)
Procedure, shortened: (§1)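 Cells grown in DMEM with 10% FBS at 37 °C, 5% CO2, seeded at 10^5 cells/mL and exposed to KJ-5 or KJ-12 at 0–32 μM for 48 h. MTT added for 4 h, formazan dissolved in DMSO, A490 read; inhibition = (1 − sample/control A490) × 100%.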

[2] = test system: normal hepatic cells L02; assay: MTT inhibition rate in normal hepatic cells L02; conditions: for Average OD / Inhibitory rate / ODtreated/ODcontrol: L02 cells, 3 repeat experiments; for Average OD: average of 5 wells; for Inhibitory rate / ODtreated/ODcontrol: fraction
[3] = test system: KYSE-30 cells; assay: MTT assay for cell proliferation, KYSE-30; design: key to Inhibitory rate: inhibition rate = 1 - mean A490 sample/mean A490 control (fraction)
Procedure, shortened: as §1

[4] = test system: HepG2 cells; assay: DAPI staining for cell apoptosis (morphology); conditions: HepG2, 2, 4, 8 μM, 24 h
Protocol: Apoptotic morphological changes were determined by DAPI staining. HepG2 cells were seeded in a 48-well plate and treated with different concentrations of KJ-5 and KJ-12 (2, 4, and 8 μM) for 24 h. After 24 h, they were then washed with PBS and fixed with 4% paraformaldehyde for 20 min. Subsequently, they were then washed with PBS and treated with DAPI (10 μg/mL) at 37°C for 5 min. After washing with PBS, the cells were resuspended in PBS for the rest of the experiment. A fluorescence microscope was used to observe the apoptotic morphological changes.

[5] = test system: HepG2 cells; assay: Cell cycle analysis (PI, flow cytometry); conditions: 24 h
Protocol: HepG2 cells were seeded in a 6-well plate at a density of 5 × 10^6 cells/well and treated with either KJ-5 or KJ-12 at concentrations of 2, 4, or 8 μM for 24 h. Cells were then collected and responded in […] of cold PBS. Subsequently, 700 μL of cold 70% ethanol was added to the cells and gently mixed by inversion on ice for 1 h. Cells were then centrifuged at 2,000 rpm for 10 min, washed once with 2 mL of cold PBS, and the supernatant was discarded. The cell pellet was resuspended in 250 μL of cold PBS, followed by the addition of 10 μL of RNase at a final concentration of 0.4 mg/mL and incubated at 37°C for 30 min. An additional 250 μL of PBS was added, followed by the addition of 5 μL of PI solution at a final concentration of 10 μg/mL. The samples were incubated […] in the dark overnight at 4°C. Finally, the samples were analyzed by flow cytometry.

COc1c2n(cc(C(=O)Nc3cccc(-c4cn(-c5cc(C(F)(F)F)cc(C(F)(F)F)c5)nn4)c3)c1=O)C[C@H]1OC[C@H](C)N1C2=O [KJ-5]
Inhibitory rate ([1]; Hela, group 1 (concentration), fraction, single experiments): 0.2915 and 0.2462 and 0.2143 | ODtreated/ODcontrol ([1]; Hela, group 1 (concentration), single experiments): 0.7085 and 0.7538 and 0.7857 | Inhibitory rate ([1]; Hela, group 2 (concentration), fraction, single experiments): 0.3879 and 0.3569 and 0.2882 | ODtreated/ODcontrol ([1]; Hela, group 2 (concentration), single experiments): 0.6121 and 0.6431 and 0.7118 | Inhibitory rate ([1]; Hela, group 4 (concentration), fraction, single experiments): 0.418 and 0.3669 and 0.3302 | ODtreated/ODcontrol ([1]; Hela, group 4 (concentration), single experiments): 0.582 and 0.6331 and 0.6698 | Inhibitory rate ([1]; Hela, group 8 (concentration), fraction, single experiments): 0.5915 and 0.5007 and 0.5011 | ODtreated/ODcontrol ([1]; Hela, group 8 (concentration), single experiments): 0.4085 and 0.4993 and 0.4989 | Inhibitory rate ([1]; Hela, group 16 (concentration), fraction, single experiments): 0.834 and 0.8197 and 0.8242 | ODtreated/ODcontrol ([1]; Hela, group 16 (concentration), single experiments): 0.166 and 0.1803 and 0.1758 | Inhibitory rate ([1]; Hela, group 32 (concentration), fraction, single experiments): 0.8525 and 0.86 and 0.8737 | ODtreated/ODcontrol ([1]; Hela, group 32 (concentration), single experiments): 0.1475 and 0.14 and 0.1263 | IC50 ([1]; Hela, one of three experiments, unit inferred, read-out: IC50, single experiment, Hela): 5.87 µM | Inhibitory rate ([1]; Hela, fraction, per experiment): 0.8059 and 0.7883 and 0.7664 | ODtreated/ODcontrol ([1]; Hela, fraction, per experiment): 0.1941 and 0.2117 and 0.2336 | IC50 ([1]; Homo sapiens, HeLa, 48 h, HeLa, 48 h, MTT, read-out: IC50 HeLa): 5.02 ± 0.94 µM | IC50 ([1]; Homo sapiens, HeLa, one of three experiments, unit inferred, read-out: IC50, single experiment, Hela): 5.16 µM | inhibition at 16 µM ([1]; Homo sapiens, preliminary screening, Hela, 16 μM, 48 h, mean±SD, unit inferred, read-out: Inhibition rate (16μM), 48 h, Hela): 79.4 ± 1.04% | inhibition at 1 µM ([2]; Homo sapiens, L02, 48 h, L02, 1 μM, 48 h): 9.85 ± 1.6% | inhibition at 2 µM ([2]; Homo sapiens, L02, 48 h, L02, 2 μM, 48 h): 14.9 ± 1.97% | inhibition at 4 µM ([2]; Homo sapiens, L02, 48 h, L02, 4 μM, 48 h): < 20% | inhibition at 8 µM ([2]; Homo sapiens, L02, 48 h, L02, 8 μM, 48 h): 27.1 ± 1.03% | inhibition at 16 µM ([2]; Homo sapiens, L02, 48 h, L02, 16 μM, 48 h): 34.9 ± 2.22% | Average OD ([2]; Group 1): 1.014 and 1.1374 and 1.3158 | Inhibitory rate ([2]; Group 1): 0.1149 and 0.09786 and 0.08274 | ODtreated/ODcontrol ([2]; Group 1): 0.8851 and 0.9021 and 0.9173 | Average OD ([2]; Group 2): 0.969 and 1.07 and 1.2316 | Inhibitory rate ([2]; Group 2): 0.1715 and 0.1379 and 0.1371 | ODtreated/ODcontrol ([2]; Group 2): 0.8285 and 0.8621 and 0.8629 | Average OD ([2]; Group 4): 0.922 and 1.0172 and 1.2162 | Inhibitory rate ([2]; Group 4): 0.1819 and 0.1797 (2×) | ODtreated/ODcontrol ([2]; Group 4): 0.8181 and 0.8203 (2×) | Average OD ([2]; Group 8): 0.8272 and 0.9114 and 1.0668 | Inhibitory rate ([2]; Group 8): 0.2824 and 0.2641 and 0.265 | ODtreated/ODcontrol ([2]; Group 8): 0.7176 and 0.7359 and 0.735 | Average OD ([2]; Group 16): 0.7216 and 0.9442 | Inhibitory rate ([2]; Group 16): 0.3649 and 0.358 and 0.3234 | ODtreated/ODcontrol ([2]; Group 16): 0.6351 and 0.642 and 0.6766 | Average OD ([2]; Group 32): 0.428 and 0.4844 and 0.436 | Inhibitory rate ([2]; Group 32): 0.7067 and 0.6192 and 0.6094 | ODtreated/ODcontrol ([2]; Group 32): 0.2933 and 0.3808 and 0.3906 | IC50 ([3]; Homo sapiens, KYSE-30, 48 h, MTT, read-out: IC50 KYSE-30): 8.51 ± 0.43 µM | IC50 ([3]; Homo sapiens, KYSE-30, KYSE-30, one of three experiments, unit inferred, read-out: IC50, single experiment, KYSE-30): 8.96 µM | inhibition at 16 µM ([3]; Homo sapiens, preliminary screening, KYSE-30, 16 μM, 48 h, mean±SD, unit inferred, read-out: Inhibition rate (16μM), 48 h, KYSE-30): 65.7 ± 0.91% | ODtreated/ODcontrol ([3]; KYSE-30, first of three experiments): 0.346 | Inhibitory rate ([3]; KYSE-30, given as fraction, first of three experiments): 0.654 | Inhibitory rate ([3]; KYSE-30, given as fraction, second of three experiments): 0.6669 | Inhibitory rate ([3]; KYSE-30, given as fraction, third of three experiments): 0.6494 | Inhibitory rate ([3]; KYSE-30, group 1 (concentration), fraction, single experiments): 0.1205 and 0.156 and 0.08655 | ODtreated/ODcontrol ([3]; KYSE-30, group 1 (concentration), single experiments): 0.8795 and 0.844 and 0.9135 | Inhibitory rate ([3]; KYSE-30, group 2 (concentration), fraction, single experiments): 0.2874 and 0.3093 and 0.2896 | ODtreated/ODcontrol ([3]; KYSE-30, group 2 (concentration), single experiments): 0.7126 and 0.6907 and 0.7104 | Inhibitory rate ([3]; KYSE-30, group 4 (concentration), fraction, single experiments): 0.3928 and 0.4106 and 0.3851 | ODtreated/ODcontrol ([3]; KYSE-30, group 4 (concentration), single experiments): 0.6072 and 0.5895 and 0.6149 | Inhibitory rate ([3]; KYSE-30, group 8 (concentration), fraction, single experiments): 0.503 and 0.5061 and 0.5028 | ODtreated/ODcontrol ([3]; KYSE-30, group 8 (concentration), single experiments): 0.497 and 0.4939 and 0.4972 | Inhibitory rate ([3]; KYSE-30, group 16 (concentration), fraction, single experiments): 0.6001 and 0.6158 and 0.6257 | ODtreated/ODcontrol ([3]; KYSE-30, group 16 (concentration), single experiments): 0.3999 and 0.3842 and 0.3743 | Inhibitory rate ([3]; KYSE-30, group 32 (concentration), fraction, single experiments): 0.6693 and 0.6807 and 0.6972 | ODtreated/ODcontrol ([3]; KYSE-30, group 32 (concentration), single experiments): 0.3307 and 0.3193 and 0.3028 | IC50 ([3]; KYSE-30, one of three experiments, unit inferred, read-out: IC50, single experiment, KYSE-30): 8.11 µM and 8.46 µM | ODtreated/ODcontrol ([3]; KYSE-30, second of three experiments): 0.3331 | ODtreated/ODcontrol ([3]; KYSE-30, third of three experiments): 0.3506 | Apoptotic morphological changes, DAPI staining [4]: cell shrinkage, nuclear condensation, and chromatin fragmentation | Percentage of cells in the G1 phase ([5]; HepG2, 2 μM): 21.2% | Percentage of cells in the G2/M phase ([5]; HepG2, 2 μM): 50.4% | Percentage of cells in the G1 phase ([5]; HepG2, 4 μM): 15% | Percentage of cells in the G2/M phase ([5]; HepG2, 4 μM): 58.3% | Percentage of cells in the G1 phase ([5]; HepG2, 8 μM): 13.5% | Percentage of cells in the G2/M phase ([5]; HepG2, 8 μM): 62.6% | Percentage of cells in the S phase (change vs control) ([5]; HepG2, 2-8 μM): did not change significantly
